Counter-ions that a name gives are not always drawn. Like-named read-outs stand apart in the source and are kept apart here.
Experiments:
RGS4 = tested on: RGS4; set-up: method as in vendor brief description; settings: ref vendor brief description; cited from earlier work
[1] = tested on: Toxoplasma gondii RH-2F tachyzoites; experiment: microbe, parasite or virus in culture; settings: 72 h
GSK-3α = tested on: GSK-3α; set-up: method as in vendor brief description; settings: ref vendor brief description; cited from earlier work
mGlu5 receptor = molecular target: mGlu5 receptor; set-up: method as in vendor brief description; settings: ref vendor brief description; cited from earlier work
matriptase = molecular target: matriptase; set-up: method as in vendor brief description; settings: ref vendor brief description; cited from earlier work
[2] = tested on: human neutrophil elastase; set-up: method as in vendor brief description; settings: ref vendor brief description; cited from earlier work
proteasome = tested on: proteasome; set-up: method as in vendor brief description; settings: ref vendor brief description; cited from earlier work
Cathepsin L = tested on: Cathepsin L; set-up: method as in vendor brief description; settings: ref vendor brief description; cited from earlier work
Cathepsin L2 = tested on: Cathepsin L2; set-up: method as in vendor brief description; settings: ref vendor brief description; cited from earlier work
Cathepsin S = tested on: Cathepsin S; set-up: method as in vendor brief description; settings: ref vendor brief description; cited from earlier work
Cathepsin K = tested on: Cathepsin K; set-up: method as in vendor brief description; settings: ref vendor brief description; cited from earlier work
Cathepsin B = tested on: Cathepsin B; set-up: method as in vendor brief description; settings: ref vendor brief description; cited from earlier work
[3] = molecular target: HIV reverse transcriptase; set-up: method as in vendor brief description; settings: ref vendor brief description; cited from earlier work
CETP = tested on: CETP; set-up: method as in vendor brief description; settings: ref vendor brief description; cited from earlier work
GluR1 and GluR3 = tested on: GluR1 and GluR3; set-up: method as in vendor brief description; settings: ref vendor brief description; cited from earlier work
in vitro = settings: human, Host viability (%) mean
IKK-2 = tested on: IKK-2; set-up: method as in vendor brief description; settings: ref vendor brief description; cited from earlier work
IKK complex = tested on: IKK complex; set-up: method as in vendor brief description; settings: ref vendor brief description; cited from earlier work
IKK-1 = tested on: IKK-1; set-up: method as in vendor brief description; settings: ref vendor brief description; cited from earlier work
[4] = molecular target: HIF-1α prolyl hydroxylase-2 (PHD2); set-up: method as in vendor brief description; settings: ref vendor brief description; cited from earlier work
LPA1 [5] = molecular target: LPA1; set-up: method as in vendor brief description; settings: ref vendor brief description; read-out: Ki LPA1-induced inositol phosphate production; cited from earlier work
LPA3 [6] = molecular target: LPA3; set-up: method as in vendor brief description; settings: ref vendor brief description; read-out: Ki LPA3-induced inositol phosphate production; cited from earlier work
LPA1 [7] = molecular target: LPA1; set-up: method as in library vendor description; settings: ref library vendor description; cited from earlier work
LPA2 = molecular target: LPA2; set-up: method as in library vendor description; settings: ref library vendor description; cited from earlier work
LPA3 [8] = molecular target: LPA3; set-up: method as in library vendor description; settings: ref library vendor description; cited from earlier work
NOD1 = tested on: NOD1; set-up: method as in vendor brief description; settings: ref vendor brief description; cited from earlier work
P2Y6 receptor = settings: read-out: IC50 P2Y6 receptor; ref vendor brief description; cited from earlier work
V1 receptor = molecular target: V1 receptor; set-up: method as in vendor brief description; settings: ref vendor brief description; cited from earlier work
V2 receptor = molecular target: V2 receptor; set-up: method as in vendor brief description; settings: ref vendor brief description; cited from earlier work
Mdm2 = tested on: Mdm2; set-up: method as in library vendor description; settings: ref library vendor description; cited from earlier work
PARP2 = tested on: PARP2; set-up: method as in library vendor description; settings: ref library vendor description; cited from earlier work
VEGFR-2 = tested on: VEGFR-2; set-up: method as in vendor brief description; settings: ref vendor brief description; cited from earlier work
ChK2 = tested on: ChK2; set-up: method as in vendor brief description; settings: ref vendor brief description; cited from earlier work
Yes = tested on: Yes; set-up: method as in vendor brief description; settings: ref vendor brief description; cited from earlier work
Fms = tested on: Fms; set-up: method as in vendor brief description; settings: ref vendor brief description; cited from earlier work
CYP3A4 (P450) = tested on: CYP3A4 (P450); set-up: method as in vendor brief description; settings: ref vendor brief description; cited from earlier work
5-HT4a = molecular target: 5-HT4a; set-up: method as in vendor brief description; settings: ref vendor brief description; cited from earlier work
5-HT4b = molecular target: 5-HT4b; set-up: method as in vendor brief description; settings: ref vendor brief description; cited from earlier work
Factor Xa = tested on: Factor Xa; set-up: method as in vendor brief description; settings: ref vendor brief description; cited from earlier work
AhR = settings: cited from earlier work
GSK-3β = tested on: GSK-3β; set-up: method as in vendor brief description; settings: ref vendor brief description; cited from earlier work
CA IX = tested on: CA IX; set-up: method as in vendor brief description; settings: ref vendor brief description; cited from earlier work
CA XII = tested on: CA XII; set-up: method as in vendor brief description; settings: ref vendor brief description; cited from earlier work
mGlu4 = tested on: mGlu4; set-up: method as in vendor brief description; settings: ref vendor brief description; cited from earlier work
Src = tested on: Src; set-up: method as in vendor brief description; settings: ref vendor brief description; cited from earlier work
VEGFR1 = tested on: VEGFR1; set-up: method as in vendor brief description; settings: ref vendor brief description; cited from earlier work
Abl = tested on: Abl; set-up: method as in vendor brief description; settings: ref vendor brief description; read-out: IC50 Abl; cited from earlier work
[9] = read-out: Parasite inhibition (%) mean, preliminary screen of compound library, mean
[10] = read-out: Parasite inhibition (%) mean, preliminary screen, mean

SMILES: Cc1ccc(-n2sc(=O)n(Cc3ccc(F)cc3)c2=O)cc1 [CCG 50014]
- IC50 (RGS4): 30 nM
- inhibition of growth at 5 µM [1, 9]: 1.4%

SMILES: Cc1c[nH]c(-c2cnc(NCCNc3ccc(C#N)cn3)nc2-c2ccc(Cl)cc2Cl)n1 [CHIR-99021 (CT99021) HCl]
- IC50 (GSK-3α): 10 nM
- inhibition of growth at 5 µM [1, 9]: 43.9%

SMILES: Cc1nc(C#Cc2ccnc(Cl)c2)c(C)n1-c1ccc(OC(F)(F)F)cc1 [CTEP]
- IC50 (mGlu5 receptor): 2.2 nM
- inhibition of growth at 5 µM [1, 9]: 2.4%

SMILES: CN(C)C(=O)COC(=O)Cc1ccc(OC(=O)c2ccc(NC(=N)N)cc2)cc1 [Camostat Mesilate (FOY-305)]
- IC50 (matriptase): 500 nM
- IC50 [2]: 200 nM
- inhibition of growth at 5 µM [1, 9]: 2.5%

SMILES: CC(C)C[C@H](NC(=O)[C@H](CCc1ccccc1)NC(=O)CN1CCOCC1)C(=O)N[C@@H](Cc1ccccc1)C(=O)N[C@@H](CC(C)C)C(=O)[C@@]1(C)CO1 [Carfilzomib (PR-171)]
- IC50 (proteasome): < 5 nM
- inhibition of growth at 5 µM [1, 9]: -3.5%

SMILES: Cn1nc(C(C)(C)C)cc1C(=O)N[C@@H](Cc1cccc(Cl)c1)C(=O)NCC#N [Cathepsin Inhibitor 1]
- pIC50 Cathepsin L (Cathepsin L): 7.9
- pIC50 Cathepsin L2 (Cathepsin L2): 6.7
- pIC50 Cathepsin S (Cathepsin S): 6.0
- pIC50 Cathepsin K (Cathepsin K): 5.5
- pIC50 Cathepsin B (Cathepsin B): 5.2
- inhibition of growth at 5 µM [1, 9]: 21.5%

SMILES: Cc1cc(C)c(Nc2ccnc(Nc3ccc(C#N)cc3)n2)c(C)c1 [Dapivirine]
- IC50 [3]: 24 nM
- inhibition of growth at 5 µM [1, 9]: 0.8%

SMILES: Cc1cc(C)c2c(c1)[C@@H](N(Cc1cc(C(F)(F)F)cc(C(F)(F)F)c1)c1nnn(C)n1)CCCN2C[C@H]1CC[C@H](C(=O)O)CC1 [Evacetrapib (LY2484595)]
- IC50 (CETP): 5.5 nM
- inhibition of growth at 5 µM [1, 9]: 22.6%

SMILES: NCCCCCNCC12CC3CC(CC(C3)C1)C2 [IEM 1754 dihydrobroMide]
- IC50 (GluR1 and GluR3): 6000 nM
- inhibition of growth at 5 µM [1, 9]: 15.8%

SMILES: O=C(c1ccc(Nc2nccc(-c3cc4ccccc4s3)n2)cc1)N1CCC(N2CCCC2)CC1 [IKK-16]
- viability at 72 h (in vitro): 10.7%
- IC50 (IKK-2): 40 nM
- IC50 (IKK complex): 70 nM
- IC50 (IKK-1): 200 nM
- inhibition of growth at 5 µM [1, 9]: 99.8%

SMILES: O=C(O)CNC(=O)c1c(O)c2ccccc2n(Cc2ccccc2)c1=O [IOX2]
- IC50 [4]: 21 nM
- inhibition of growth at 5 µM [1, 9]: 32.8%

SMILES: Cc1noc(-c2ccc(CSCCC(=O)O)cc2)c1NC(=O)OC(C)c1ccccc1Cl (stereo not shown) [Ki16425]
- Ki (LPA1 [5]): 340 nM
- Ki (LPA3 [6]): 930 nM
- Ki (LPA1 [7]): 340 nM
- Ki (LPA2): 6500 nM
- Ki (LPA3 [8]): 930 nM
- inhibition of growth at 5 µM [1, 10]: -25.5%

SMILES: Cc1ccc(S(=O)(=O)n2c(N)nc3ccccc32)cc1 [ML130]
- IC50 (NOD1): 560 nM
- inhibition of growth at 5 µM [1, 9]: 3.3%

SMILES: S=C=Nc1cccc(NC(=S)NCCCCNC(=S)Nc2cccc(N=C=S)c2)c1 [MRS 2578]
- IC50 (P2Y6 receptor): 37 nM
- inhibition of growth at 5 µM [1, 9]: 0.2%

SMILES: Cc1ccccc1C(=O)Nc1ccc(C(=O)N2CCCC(N(C)C)c3ccccc32)cc1 (stereo not shown) [Mozavaptan]
- IC50 (V1 receptor): 1200 nM
- IC50 (V2 receptor): 14 nM
- inhibition of growth at 5 µM [1, 9]: 3.1%

SMILES: COc1ccc(C2=N[C@@H](c3ccc(Cl)cc3)[C@@H](c3ccc(Cl)cc3)N2C(=O)N2CCNC(=O)C2)c(OC(C)C)c1 [Nutlin-3]
- inhibition of growth at 5 µM [1, 10]: -1.5%

SMILES: O=C(c1cc(Cc2n[nH]c(=O)c3ccccc23)ccc1F)N1CCN(C(=O)C2CC2)CC1 [Olaparib (AZD2281)]
- IC50 (PARP2): 1 nM
- inhibition of growth at 5 µM ([1]; read-out: Parasite inhibition (%) mean): 28.2%

SMILES: Cn1cc(-c2[nH]c3cc(NC(=O)[C@H](N)C4CCCCC4)cc4c3c2C=NNC4=O)cn1 [PF 477736]
- IC50 (VEGFR-2): 8 nM
- IC50 (ChK2): 47 nM
- IC50 (Yes): 14 nM
- IC50 (Fms): 10 nM
- inhibition of growth at 5 µM [1, 9]: -0.5%

SMILES: Cc1ccc(-c2c(-c3nn(C)c4ncnc(N5CC[C@H](N6CCCCC6)C5)c34)cnn2C)cc1 [PF-4981517]
- IC50 (CYP3A4 (P450)): 30 nM
- inhibition of growth at 5 µM [1, 9]: -8.9%

SMILES: COCCCN1CCC(NC(=O)c2cc(Cl)c(N)c3c2OCC3)CC1 [Prucalopride]
- Ki (5-HT4a): 2.5 nM
- Ki (5-HT4b): 8 nM
- inhibition of growth at 5 µM [1, 9]: -7.6%

SMILES: O=C(NCC1CN(c2ccc(N3CCOCC3=O)cc2)C(=O)O1)c1ccc(Cl)s1 (stereo not shown) [Rivaroxaban (Xarelto)]
- inhibition of growth at 5 µM [1, 9]: 0.4%

SMILES: CC(C)n1cnc2c(NCCc3ccc(O)cc3)nc(-c3csc4ccccc34)nc21 [StemRegenin 1]
- IC50 (AhR): 127 nM
- inhibition of growth at 5 µM [1, 9]: 0.2%

SMILES: Cn1sc(=O)n(Cc2ccccc2)c1=O [TDZD-8]
- IC50 (GSK-3β): 2000 nM
- inhibition of growth at 5 µM [1, 9]: 12.8%

SMILES: NS(=O)(=O)c1ccc(NC(=O)Nc2ccc(F)cc2)cc1 [U-104]
- inhibition of growth at 5 µM [1, 9]: 5%

SMILES: O=C(Nc1cccc(Cl)c1)c1ccccn1 [VU 0364770]
- EC50 (mGlu4): 1100 nM
- inhibition of growth at 5 µM [1, 9]: 1.8%

SMILES: COc1cc2ncnc(Nc3ccc(Cl)cc3F)c2cc1OC [ZM 306416]
- viability at 72 h (in vitro; preliminary screen of compound library, mean): 76.6%
- IC50 (Abl): 1300 nM
- inhibition of growth at 5 µM [1, 9]: 70.2%

From publication PMC7216583 (Parasites & Vectors, 2020)
